We go through 24 molecules from publication PMC8192883, “Novel 1,2,4-oxadiazole derivatives as selective butyrylcholinesterase inhibitors: Design, synthesis and biological evaluation” (EXCLI Journal, 2021).

Read-outs that look alike come from different tables or passages of the source. A value given as a limit tells only on which side of the number the result lay.

For assay [1], the target named is T1, AChE (E.C. 3.1.1.7, type V-S) (Electrophorus electricus, UniProt O42275).
T1 construct: purchased Sigma-Aldrich type V-S (catalogue number not given); host or cells: electric eel (natural source)
The assay can be described thus: biochemical. Particulars: Ellman's method, electric eel AChE, mean ± SD. The procedure:
(§1) The inhibitory activity of the designed compounds against BuChE and AChE was evaluated using Ellman's method. […] AChE (E.C. 3.1.1.7, type V-S, lyophilized powder, from the electric eel, 1000 units) and BuChE (E.C. 3.1.1.8, from equine serum), acetylthiocholine iodide (ATCI), butyrylthiocholine iodide (BTCI), and 5,5-dithiobis-(2-nitrobenzoic acid) (DTNB) were all acquired from Sigma-Aldrich. Potassium dihydrogen phosphate, dipotassium hydrogen phosphate, potassium hydroxide, and sodium hydrogen carbonate were obtained from Fluka. […] In this regard, each one of the wells included a 50 µL potassium phosphate buffer, 25 µL sample dissolved in 50 % methanol and 50 % DMSO, and 25 µL enzyme (the final concentration 0.22 U/mL in buffer). Thereafter, the wells were pre-incubated for 15 min at room temperature, and 125 µL DTNB (3 mM in buffer) was added to each plate. […] As well, the IC50 values were expressed as mean ± SD. The percentage of enzyme's inhibition was calculated by comparing with a blank sample (100 % activity). The described method was also used for the BuChE inhibition assay.
For orientation: DTNB colorimetry detects thiols as they appear.

The target in another assay is T2, BuChE (E.C. 3.1.1.8) (Equus caballus, UniProt P81908).
T2 construct: purchased Sigma-Aldrich; host or cells: equine serum (natural source)
The assay can be described thus: biochemical. Particulars: for IC50: Ellman's method, equine serum BuChE, mean ± SD; for SI (selectivity towards BuChE): SI ratio, values match IC50 AChE / IC50 BuChE. Here is the method:
as §1

A further assay concerns AChE. Further details: method as in earlier work. Particulars: Figure 2, known inhibitors, ref Wajid et al., 2019, Wu et al., de Andrade et al., Joubert and Kapp, 2020; cited from earlier work.
The next assay relates to BuChE. Conditions: ref Wajid et al., 2019, Wu et al., cited from earlier work.
The mark [2] stands for this setting: Figure 2, known inhibitors, de Andrade et al., Joubert and Kapp, 2020.

T1 sequence (O42275 24-633): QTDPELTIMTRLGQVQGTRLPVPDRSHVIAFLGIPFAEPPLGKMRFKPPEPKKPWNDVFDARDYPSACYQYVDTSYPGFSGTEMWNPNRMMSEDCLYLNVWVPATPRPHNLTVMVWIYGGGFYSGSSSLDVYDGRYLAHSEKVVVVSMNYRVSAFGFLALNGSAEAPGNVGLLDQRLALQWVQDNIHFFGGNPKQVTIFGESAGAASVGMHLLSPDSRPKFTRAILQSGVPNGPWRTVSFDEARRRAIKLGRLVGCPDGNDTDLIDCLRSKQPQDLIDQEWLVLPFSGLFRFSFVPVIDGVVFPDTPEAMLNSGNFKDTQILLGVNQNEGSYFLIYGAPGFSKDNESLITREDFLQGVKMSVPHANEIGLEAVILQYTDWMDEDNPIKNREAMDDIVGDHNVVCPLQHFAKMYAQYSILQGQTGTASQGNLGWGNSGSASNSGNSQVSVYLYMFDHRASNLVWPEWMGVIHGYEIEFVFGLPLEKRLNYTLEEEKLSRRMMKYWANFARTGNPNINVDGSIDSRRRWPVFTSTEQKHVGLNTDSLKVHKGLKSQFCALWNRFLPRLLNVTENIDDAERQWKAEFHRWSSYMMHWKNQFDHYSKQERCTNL
T2 sequence (P81908 whole entry): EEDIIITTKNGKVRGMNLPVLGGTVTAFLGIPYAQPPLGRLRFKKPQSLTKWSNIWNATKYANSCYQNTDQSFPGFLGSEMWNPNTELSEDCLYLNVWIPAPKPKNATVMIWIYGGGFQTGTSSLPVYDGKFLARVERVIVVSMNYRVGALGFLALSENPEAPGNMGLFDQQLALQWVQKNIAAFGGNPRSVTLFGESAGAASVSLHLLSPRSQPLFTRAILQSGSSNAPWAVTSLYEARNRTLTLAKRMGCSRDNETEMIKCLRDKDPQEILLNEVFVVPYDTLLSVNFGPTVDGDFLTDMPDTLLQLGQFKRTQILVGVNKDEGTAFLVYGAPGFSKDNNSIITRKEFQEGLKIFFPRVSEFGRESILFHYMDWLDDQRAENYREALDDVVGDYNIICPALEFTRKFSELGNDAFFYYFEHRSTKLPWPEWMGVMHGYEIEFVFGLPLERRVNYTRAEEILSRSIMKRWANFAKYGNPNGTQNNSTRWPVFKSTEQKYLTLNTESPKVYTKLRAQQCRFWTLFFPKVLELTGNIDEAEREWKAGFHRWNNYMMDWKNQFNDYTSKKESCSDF

Broadly, the IC50 is the concentration that inhibits the measured activity by half. Turning to `c1ccc(CN2CCC(c3nc(-c4ccccc4)no3)CC2)cc1` [6a, 5-(1-benzylpiperidin-4-yl)-3-phenyl-1,2,4-oxadiazole], the values for the IC50 (in assay [1]; against BuChE (E.C. 3.1.1.8)) were 35.5 µM and 14.2 µM, respectively. Also, the “SI (selectivity towards BuChE)” value on BuChE (E.C. 3.1.1.8) is given as 2.49.

`Cc1ccc(-c2noc(C3CCN(Cc4ccccc4)CC3)n2)cc1` [6b, 5-(1-benzylpiperidin-4-yl)-3-(p-tolyl)-1,2,4-oxadiazole]: in assay [1], the IC50 was more than 100 µM. For the same molecule, at BuChE (E.C. 3.1.1.8), the IC50 was found to be 9.81 µM and the “SI (selectivity towards BuChE)” value is listed as more than 10.19.

`Clc1ccc(-c2noc(C3CCN(Cc4ccccc4)CC3)n2)cc1` [6c, 5-(1-benzylpiperidin-4-yl)-3-(4-chlorophenyl)-1,2,4-oxadiazole]: the IC50 (in assay [1]; against BuChE (E.C. 3.1.1.8)) was more than 100 µM each time.

In assay [1], `Fc1ccc(-c2noc(C3CCN(Cc4ccccc4)CC3)n2)cc1` [6d, 5-(1-benzylpiperidin-4-yl)-3-(4-fluorophenyl)-1,2,4-oxadiazole] returned an IC50 of 21.16 ± 0.13 µM. On BuChE (E.C. 3.1.1.8), the midpoint of inhibition, the IC50, lay at 24.8 ± 0.97 µM and the “SI (selectivity towards BuChE)” value turned out to be 0.85.

Take `Fc1ccc(CN2CCC(c3nc(-c4ccccc4)no3)CC2)cc1` [6e, 5-(1-(4-fluorobenzyl)piperidin-4-yl)-3-phenyl-1,2,4-oxadiazole]: the IC50 (in assay [1]; against BuChE (E.C. 3.1.1.8)) was more than 100 µM throughout.

Molecule `Cc1ccc(-c2noc(C3CCN(Cc4ccc(F)cc4)CC3)n2)cc1` [6f, 5-(1-(4-fluorobenzyl)piperidin-4-yl)-3-(p-tolyl)-1,2,4-oxadiazole] showed an IC50 in assay [1] of more than 100 µM. At BuChE (E.C. 3.1.1.8), the IC50 was 50.7 ± 0.06 µM and the “SI (selectivity towards BuChE)” value is recorded as more than 1.97.

Take `Fc1ccc(CN2CCC(c3nc(-c4ccc(Cl)cc4)no3)CC2)cc1` [6g, 3-(4-chlorophenyl)-5-(1-(4-fluorobenzyl)piperidin-4-yl)-1,2,4-oxadiazole]: the IC50 (in assay [1]; on BuChE (E.C. 3.1.1.8)) was more than 100 µM throughout.

As for `Fc1ccc(CN2CCC(c3nc(-c4ccc(F)cc4)no3)CC2)cc1` [6h, 5-(1-(4-fluorobenzyl)piperidin-4-yl)-3-(4-fluorophenyl)-1,2,4-oxadiazole], the IC50 (in assay [1]; on BuChE (E.C. 3.1.1.8)) was more than 100 µM in each case.

In the case of `Clc1ccc(CN2CCC(c3nc(-c4ccccc4)no3)CC2)cc1` [6i, 5-(1-(4-chlorobenzyl)piperidin-4-yl)-3-phenyl-1,2,4-oxadiazole], the IC50 (in assay [1]; at BuChE (E.C. 3.1.1.8)) was more than 100 µM in each case.

As for `Cc1ccc(-c2noc(C3CCN(Cc4ccc(Cl)cc4)CC3)n2)cc1` [6j, 5-(1-(4-chlorobenzyl)piperidin-4-yl)-3-(p-tolyl)-1,2,4-oxadiazole], the IC50 in assay [1] is more than 100 µM. Besides, on BuChE (E.C. 3.1.1.8), the IC50 stood at 50.3 ± 0.77 µM and the “SI (selectivity towards BuChE)” value was more than 1.98.

Regarding `Clc1ccc(CN2CCC(c3nc(-c4ccc(Cl)cc4)no3)CC2)cc1` [6k, 5-(1-(4-chlorobenzyl)piperidin-4-yl)-3-(4-chlorophenyl)-1,2,4-oxadiazole], the IC50 (in assay [1]; against BuChE (E.C. 3.1.1.8)) was more than 100 µM in each case.

Consider `Fc1ccc(-c2noc(C3CCN(Cc4ccc(Cl)cc4)CC3)n2)cc1` [6l, 5-(1-(4-chlorobenzyl)piperidin-4-yl)-3-(4-fluorophenyl)-1,2,4-oxadiazole], for which the IC50 (in assay [1]; at BuChE (E.C. 3.1.1.8)) was more than 100 µM in each case.

As to `Clc1ccccc1CN1CCC(c2nc(-c3ccccc3)no2)CC1` [6m, 5-(1-(2-chlorobenzyl)piperidin-4-yl)-3-phenyl-1,2,4-oxadiazole], the IC50 (in assay [1]; against BuChE (E.C. 3.1.1.8)) was more than 100 µM throughout.

Take `Cc1ccc(-c2noc(C3CCN(Cc4ccccc4Cl)CC3)n2)cc1` [6n, 5-(1-(2-chlorobenzyl)piperidin-4-yl)-3-(p-tolyl)-1,2,4-oxadiazole]: the IC50 was more than 100 µM in assay [1] and 5.07 µM at BuChE (E.C. 3.1.1.8). On BuChE (E.C. 3.1.1.8), the “SI (selectivity towards BuChE)” value is listed as “greater than 19.72”.

With `Clc1ccc(-c2noc(C3CCN(Cc4ccccc4Cl)CC3)n2)cc1` [6o, 5-(1-(2-chlorobenzyl)piperidin-4-yl)-3-(4-chlorophenyl)-1,2,4-oxadiazole], the IC50 in assay [1] is more than 100 µM; on BuChE (E.C. 3.1.1.8), 81.2 ± 0.98 µM. For the same molecule, the “SI (selectivity towards BuChE)” value on BuChE (E.C. 3.1.1.8) is on record as more than 1.23.

For `Fc1ccc(-c2noc(C3CCN(Cc4ccccc4Cl)CC3)n2)cc1` [6p, 5-(1-(2-chlorobenzyl)piperidin-4-yl)-3-(4-fluorophenyl)-1,2,4-oxadiazole], the IC50 (in assay [1]; on BuChE (E.C. 3.1.1.8)) was more than 100 µM in each case.

`Cc1ccc(CN2CCC(c3nc(-c4ccccc4)no3)CC2)cc1` [6q, 5-(1-(4-methylbenzyl)piperidin-4-yl)-3-phenyl-1,2,4-oxadiazole]: the IC50 (in assay [1]; on BuChE (E.C. 3.1.1.8)) was more than 100 µM in each case.

In assay [1], `Cc1ccc(CN2CCC(c3nc(-c4ccc(C)cc4)no3)CC2)cc1` [6r, 5-(1-(4-methylbenzyl)piperidin-4-yl)-3-(p-tolyl)-1,2,4-oxadiazole] had an IC50 of more than 100 µM. In addition, at BuChE (E.C. 3.1.1.8), half-maximal inhibition (IC50) required 62.8 ± 0.65 µM and the “SI (selectivity towards BuChE)” value was more than 1.59.

Turning to `Cc1ccc(CN2CCC(c3nc(-c4ccc(Cl)cc4)no3)CC2)cc1` [6s, 3-(4-chlorophenyl)-5-(1-(4-methylbenzyl)piperidin-4-yl)-1,2,4-oxadiazole], the IC50 (in assay [1]; against BuChE (E.C. 3.1.1.8)) was more than 100 µM in each case.

Take `Cc1ccc(CN2CCC(c3nc(-c4ccc(F)cc4)no3)CC2)cc1` [6t, 3-(4-fluorophenyl)-5-(1-(4-methylbenzyl)piperidin-4-yl)-1,2,4-oxadiazole]: the IC50 (in assay [1]; against BuChE (E.C. 3.1.1.8)) was more than 100 µM throughout.

For the molecule `CCCCCCCNC(=O)Oc1cccc(-c2coc3c4c(ccc3c2=O)OC(C)(C)C=C4)c1F` [compound 1], the IC50 in the assay with AChE is 297 µM; in the assay with BuChE (setting [2]) it was 0.222 µM.

For the molecule `O=C(Nc1c(Cl)cccc1Cl)c1ccc(Br)cc1` [compound 2], in the assay on AChE, the “AChE IC50” value was “inactive”. Moreover, the IC50 in the assay on BuChE (Figure 2, known inhibitor) was 0.8 µM.

As to `CC(=O)N[C@@H](Cn1cc(-c2ccccc2)nn1)C(=O)NCC1CCN(Cc2ccccc2)CC1` [compound 3], the results for the IC50 with AChE and with BuChE (setting [2]) were more than 10 µM and 0.00017 µM, respectively.

With `COc1cc(C2C3=C(CCCC3=O)NC3=C2C(=O)CCC3)ccc1OCc1ccc(F)cc1` [compound 4], the IC50 is 125 µM with AChE and 0.098 µM in the assay on BuChE (setting [2]).
